Structures can show the parent of a compound that is named as a salt.
Molecular target: T1, FPPS (Farnesyl pyrophosphate synthase) (Homo sapiens, UniProt P14324)
T1 sequence (P14324 1-353 isoform P14324-2): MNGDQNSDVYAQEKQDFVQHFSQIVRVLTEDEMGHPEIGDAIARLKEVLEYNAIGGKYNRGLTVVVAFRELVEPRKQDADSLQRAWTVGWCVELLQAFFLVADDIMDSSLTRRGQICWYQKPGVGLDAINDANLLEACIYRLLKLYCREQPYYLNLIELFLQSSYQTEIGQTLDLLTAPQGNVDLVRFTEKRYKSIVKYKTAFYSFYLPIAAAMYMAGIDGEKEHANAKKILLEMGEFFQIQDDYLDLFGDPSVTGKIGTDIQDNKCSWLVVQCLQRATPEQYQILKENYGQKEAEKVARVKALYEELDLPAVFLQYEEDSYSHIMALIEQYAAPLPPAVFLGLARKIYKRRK
Test: FPPS Assay: LC-MS Method
Assay type: biochemical
Conditions: GPP/IPP 5 μM each, reaction stopped after 10 minutes
Protocol: Recombinant human Farnesyl Pyrophosphate synthase (FPPS) was cloned, expressed and purified as previously described {J.-M. Rondeau et al., ChemMedChem 2006, 1, 267-271.} and stored as a 10 mg/mL stock solution in 25 mM Tris pH 7.4, 25 mM NaCl, 2 mM DTT (dithiothreitol). Geranyl pyrophosphate (GPP) was purchased from Anawa AG (Switzerland) and stored as a 1 mg/mL solution in 4 parts isopropanol:3 parts ammonia:1 part water. 1-[^3H]Isopentenyl pyrophosphate (IPP), 50 Ci/mmol; 1 Ci/mL, was purchased from Anawa AG and stored in ethanol:ammonia hydroxide 1:1 at −80 C. 1-[^3H] Farnesyl pyrophosphate triammonium salt, 100 Ci/mmol; 1 mCi/mL in 70% ethanol, 0.25 M ammonium bicarbonate was purchased from Anawa AG. Phospholipid-coated 384-well image FlashPlates™ were purchased from PerkinElmer. the assay buffer consisted of 20 mM HEPES pH7.4, 5 mM MgCl2 and 1 mM CaCl2.
Selected compounds are assayed in another FPPS based assay:
Into each well of a 384-well plate, 5 μL of compound in 20% DMSO/water is placed. 25 μL of GPP/IPP (5 μM each in assay buffer) is then added. The reaction is started with the addition of 10 μL of FPPS (diluted 1 to 10000 with assay buffer). After 10 minutes, the reaction is stopped by addition of 10 μL of 2 μM FSPP in 2% DMIPA/IPA. The reaction mixture is then extracted with 50 μL of n-pentanol using vortex mixing. After phase separation, 25 μL of the upper (n-pentanol) layer is transferred to a new 384-well plate and the pentanol is evaporated using a vacuum centrifuge. The dried residue is reconstituted in 50 μL of 0.1% DMIPA/water for analysis by the LC/MS/MS method.
LC/MS/MS analyses are performed on a Micromass Quattro Micro interfaced to an Agilent 1100 binary LC pump. Injection is performed by a Gilson 215/889 autosampler using an injection loop size of 2.5 μL. Chromatography is performed on a Waters 2.1×20 mm Xterra MS C18 5 μm guard column (P/N186000652) contained in a guard column holder (P/N 186000262) using 0.1% DMIPA/methanol as solvent A and 0.1% DMIPA/water as solvent B. The gradient is 5% A from 0.00 to 0.30 min, 50% A at 0.31 min, 80% A at 1.00 min, and 5% A from 1.01 to 2.00 min. The flow rate is 0.3 mL/min and the flow is diverted to waste from 0.00 to 0.50 min and again from 1.20 to 2.00 min.
The MRM transitions monitored are 381^−>79^− for FPP and 397^−>159^− for FSPP at a collision energy of 22 eV and a collision cell pressure of 2.1×10^−3 mbar of Ar. The dwell time per transition is 400 msec with a span of 0.4 Da. The interchannel delay and interscan delay are both 0.02 sec. Other mass spectrometric operating parameters are: capillary, 2.0 kV; cone, 35 V; extractor, 2.0 V, source temp., 100° C.; desolvation gas temp., 250° C.; desolvation gas flow, 650 L/hr; cone gas flow, 25 L/hr; multiplier, 650 V.
The total cycle time per sample is 2.5 minutes. Since the analysis is formatted for 384-well plates, a plate is analyzed in 16 hours. The chromatograms are processed using Quanlynx software, which divides the area of individual FPP peaks by the area of the FSPP peaks (internal standard). The resulting values are reported as the relative response for the corresponding sample well.
Work on `COC(=O)Nc1cc(-c2cccc3ccccc23)c2nc(/C=C/P(=O)(O)O)ccc2c1` [Example 44, [(E)-2-(6-Methoxycarbonylamino-8-naphthalen-1-yl-quinolin-2-yl)-vinyl]-phosphonic acid] yielded an IC50 of 14 nM.
`Cc1cccc2c(-c3cccc4ccc(C(=O)O)nc34)cccc12` [Example 38, 8-(5-Methyl-naphthalen-1-yl)-quinoline-2-carboxylic acid] gave an IC50 of 217 nM.
`O=[N+]([O-])c1cc(-c2cccc3ccccc23)c2nc(/C=C/P(=O)(O)O)ccc2c1` [Example 43, [(E)-2-(6-Nitro-8-naphthalen-1-yl-quinolin-2-yl)-vinyl]-phosphonic acid] gave an IC50 of 103 nM.
Compound `CS(=O)(=O)Nc1cc(-c2cccc3ccccc23)c2nc(/C=C/P(=O)(O)O)ccc2c1` [Example 46, [(E)-2-(6-Methanesulfonylamino-8-naphthalen-1-yl-quinolin-2-yl)-vinyl]-phosphonic acid] has an IC50 of 91 nM.
Work on `O=C(O)c1ccc2cc(I)cc(-c3cccc4ccccc34)c2n1` [Example 32, 6-Iodo-8-naphthalen-1-yl-quinoline-2-carboxylic acid lithium salt] yielded an IC50 of 160 nM.
`CCOC(=O)Nc1cc(-c2cccc3ccccc23)c2nc(C(=O)O)ccc2c1` [Example 29, 6-Ethoxycarbonylamino-8-naphthalen-1-yl-quinoline-2-carboxylic acid] showed an IC50 of 37 nM.
`O=P(O)(O)c1ccc2cc(-c3ccsc3)cc(-c3cccc4ccccc34)c2n1` [Example 27c.ii] gave an IC50 of 205 nM.
With `CC(=O)Nc1cc(-c2cccc3ccccc23)c2nc(/C=C/P(=O)(O)O)ccc2c1` [Example 45, [(E)-2-(6-Acetylamino-8-naphthalen-1-yl-quinolin-2-yl)-vinyl]-phosphonic acid] the IC50 was 26 nM.
`O=P(O)(O)c1ccc2cc(-c3ccc4c(c3)OCO4)cc(-c3cccc4ccccc34)c2n1` [Example 27f.ii] showed an IC50 of 977 nM.
For `O=C(O)c1ccc2cc(-c3ccsc3)cc(-c3cccc4ccccc34)c2n1` [Example 34, 8-Naphthalen-1-yl-6-thiophen-3-yl-quinoline-2-carboxylic acid], the IC50 was 100 nM.
Compound `CS(=O)(=O)N(c1cc(-c2cccc3ccccc23)c2nc(/C=C/P(=O)(O)O)ccc2c1)S(C)(=O)=O` [Example 47, {(E)-2-[6-(di-methanesulfonyl)amino-8-naphthalen-1-yl-quinolin-2-yl]-vinyl}-phosphonic acid] has an IC50 of 204 nM.
Work on `CCOc1c(N)cc(-c2cccc3ccccc23)c2nc(C(=O)O)ccc12` [Example 30, 6-Amino-5-ethoxy-8-naphthalen-1-yl-quinoline-2-carboxylic acid] yielded an IC50 of 24 nM.
Compound `O=C(O)c1ccc2cc(-c3cccs3)cc(-c3cccc4ccccc34)c2n1` [Example 35, 8-Naphthalen-1-yl-6-thiophen-2-yl-quinoline-2-carboxylic acid lithium salt] has an IC50 of 311 nM.
Compound `Nc1cc(-c2cccc3ccccc23)c2nc(C(=O)O)ccc2c1` [Example 31, 6-Amino-8-naphthalen-1-yl-quinoline-2-carboxylic acid] has an IC50 of 69 nM.
`CC(=O)Nc1cc(-c2cccc3ccccc23)c2nc(-c3nn[nH]n3)ccc2c1` [Example 51, N-[8-Naphthalen-1-yl-2-(2H-tetrazol-5-yl)-quinolin-6-yl]-acetamide] gave an IC50 of 48 nM.
Work on `O=P(O)(O)c1ccc2cc(-c3cccc(O)c3)cc(-c3cccc4ccccc34)c2n1` [Example 28, [6-(3-Hydroxy-phenyl)-8-naphthalen-1-yl-quinolin-2-yl]-phosphonic acid] yielded an IC50 of 606 nM.
With `O=P(O)(O)c1ccc2cc(-c3cccs3)cc(-c3cccc4ccccc34)c2n1` [Example 17, (8-Naphthalen-1-yl-6-thiophen-2-yl-quinolin-2-yl)-phosphonic acid] the IC50 was 266 nM.

Test system: not given
Test: not given
Conditions: not given
Compound `CCOC(=O)Nc1cc(-c2cccc3ccccc23)c2nc(C(=O)O)ccc2c1` [Example 29, 6-Ethoxycarbonylamino-8-naphthalen-1-yl-quinoline-2-carboxylic acid] has a melting point of 205 to 208 °C.
Compound `O=C(O)c1ccc2cc(-c3ccsc3)cc(-c3cccc4ccccc34)c2n1` [Example 34, 8-Naphthalen-1-yl-6-thiophen-3-yl-quinoline-2-carboxylic acid] has a melting point of 164 to 166 °C.
In the case of `CCOc1c(N)cc(-c2cccc3ccccc23)c2nc(C(=O)O)ccc12` [Example 30, 6-Amino-5-ethoxy-8-naphthalen-1-yl-quinoline-2-carboxylic acid], the melting point is reported as 182 to 184 °C.

From patent US20120094958A1, “QUINOLINES AS INHIBITORS OF FARNESYL PYROPHOSPHATE SYNTHASE” (NOVARTIS AG, priority 2008, published 2012)
